According to US11505534B2, “Highly diastereoselective construction of the 4,5-spirocycle via palladium-catalyzed intramolecular alkenylation” (The University of Chicago, priority 2017, dated 2022):

Experiments:
[1] = tested on: interleukin-2 (IL-2) production in a B cell lymphoma cell line; experiment: suppression of interleukin-2 (IL-2) production in a B cell lymphoma cell line; assay type: cell-based; settings: 100 micromolar (μM) concentrations of the compounds, preliminary biological testing
Source text: In some embodiments, the presently disclosed subject matter provides phainanoid analogs, as well as compounds that can be used as synthetic intermediates in preparing phainanoids and phainanoid analogs. In particular, the presently disclosed phainanoid analogs include the benzofuran-based 4,5-spirocycle with the strained exocyclic olefin motif present in the “western” part of the natural product phainanoids. Given the inclusion of this motif, it is believed that the presently disclosed phainanoid analogs can be useful as novel immunosuppressive agents, e.g., for the treatment of diseases characterized by an aberrant immune response, such as autoimmune and/or inflammatory diseases, as well as during transplant operations.

Row | SMILES | immunosuppressive activity (suppression of interleukin-2 (IL-2) production) [1] | melting point
1 | C[C@@]12CCCC=C1[C@@]1(C2)Oc2ccccc2C1=O [Compound 7] | complete suppression | 
2 | C[C@]12C[C@@]3(Oc4ccccc4C3=O)C1=CC[C@]1(C)c3ccccc3CC[C@@H]21 [Compound 8] | complete suppression | 174 to 177 °C
3 | C[C@]1(/C=C2\Oc3ccccc3C2=O)[C@@H](O)CC[C@]2(C)c3ccccc3CC[C@@H]12 [Compound 25] | complete suppression | 
